Source: patent US20220387602A1, “BIFUNCTIONAL DEGRADERS AND THEIR METHODS OF USE” (NOVARTIS AG, priority 2019, published 2022)
Entries after “also recorded” stand apart in the source; their conditions may differ.

Assays:
BTK = target: T1, BTK (Homo sapiens, UniProt Q06187); assay: BTK-GFP protein abundance flow cytometry assay in HEK293A; format: cell-based; conditions: for BTK degradation Amax: % protein remaining at the concentration at which maximum degradation is seen, HEK293A; for BTK degradation Amax / DC50: 24 h; for DC50: concentration at which 50% maximal degradation was observed, HEK293A BTK-GFP sensor cells
T1 construct: the BTK open reading frame (ORF) was first shuttled from a pcDNA-DEST40-BTK vector; expressed in transfected cells; host or cells: HEK293A (Invitrogen R70507), lentiviral transduction, blasticidin selection
Procedure: Degradation of BTK, CSK, ABL2, EPHA4 and YES1 was measured in HEK293A cells (Invitrogen R70507) expressing either BTK-GFP and RFP, CSK-GFP and mCherry, GFP-ABL2 and mCherry, EPHA4-GFP and mCherry, or YES1-GFP and mCherry from a stably integrated bicistronic BTK-GFP-iresRFP, CSK-GFP-CHYSEL-mCherry, GFP-ABL2-CHYSEL-mCherry, EPHA4-GFP-CHYSEL-mCherry, or YES1-GFP-CHYSEL-mCherry construct, respectively. Reduction of the GFP signal measured by flow cytometry served as readout for BTK, CSK, ABL2, EPHA4 and YES1 degradation after degrader treatment.
The mix was incubated for another 20 min at RT and then added on 1 mL of a freshly prepared suspension of HEK293FT cells in a well of a 6-well plate (concentration 1.2×10^6 cells/mL). 1 day after transfection, the medium was replaced with 1.5 mL of complete growth medium (DMEM high Glucose+10% FCS+1% L-Glutamine+1% NEAA+1% NaPyr.). 48 h post transfection supernatant containing viral transducing particles was collected and frozen at −80° C.
Infection was performed with 90 μL of collected supernatant containing viral transducing particles in 1 mL medium including 8 µg/mL polybrene. 24 h post infection, stably transfected cells were selected with blasticidin at a concentration of 8 μg/mL referred to as stable HEK293A sensor cells.
Stable HEK293A sensor cells were maintained in complete growth medium (DMEM high Glucose+10% FCS+1% L-Glutamine+1% NEAA+1% NaPyr.) with passaging performed twice per week. On Day 0, stable HEK293A sensor cells were seeded at 10,000 cells/well in a 96-well microtiter plate in 260 μL complete medium. On Day 1, cells were treated in duplicate with 10-point 1:3 dilution series of compound using the HP D300 Digital Dispenser (Tecan). DMSO concentrations were normalized across the plate to 0.1%. On Day 2, after 24 h of incubation at 37° C., treatment media was discarded, cells rinsed with 100 μL/well PBS and then detached using 40 μL trypsin/well for 5 min. Trypsin was neutralized with 100 μL/well PBS+20% FCS). Flow cytometry was performed on the samples using the BD FACS CANTO II (Becton Dickinson). Cell identification was then performed using forward (FSC) vs. side scatter (SSC) plots. Single cell discrimination is performed using SSC-Width (SSC-W) vs. SSC-Height (SSC-H) plots. Median GFP values for 5,000 single cells are used to determine BTK levels. Median GFP values from HEK293 Å-iresRFP are used as a background signal and thus defining 0% BTK signal. Median GFP values from DMSO treated HEK293 Å-BTK-GFP-iresRFP are used to define 100% BTK signal for subsequent DC50 curves (concentration at 50% BTK degradation). GFP and RFP are read in the channels called FITC and PE, respectively.
Concentration response curves plotting relative reduction of the GFP signal (measured by flow cytometry) versus 10 compound concentrations (starting concentration 10 μM, 3 fold dilution steps) of the compounds allowed generation of DC50 values. Protein abundance measured for the second generation vectors having a chysel was done in close analogy to the above described method for measuring BTK abundance.
Table 5 columns are defined as follows: DC50 refers to the concentration at which 50% maximal degradation was observed; deg Amax is the extent of degradation and the value refers to the % protein remaining at the concentration at which maximum degradation is seen.

CRBN = CRBN (Homo sapiens, UniProt Q96SW2); assay: CRBN displacement assay Format 1 (fluorescence polarization, BodipyFL-lenalidomide probe Compound HH); format: binding
Procedure: Compounds were tested in the following biochemical and cellular assays.
BodipyFL conjugated lenalidomide compound HH was used as a fluorescent probe. […] Protein and substrate were diluted in assay buffer.
All protein and probe containing solutions were handled in ‘Maxymum Recovery’ tubes (Axygen Scientific Inc., Union City, USA). […] For the plate measurements a PHERAstar reader (BMG Labtech, Offenburg, Germany) was used. The instrument was equipped with a specific optics module containing filters and dichoic mirrors for measuring the fluorescence polarization-type assay. With this module, the fluorescence of the Bodipy FL-based probe was excited at 485 nm and the emissions of the product were measured at 520 nm. The fluorescence in each well was excited by 10 flashes per measurement.
For the determination of AC50 values, the assays were performed at room temperature in 384-well plates with a total assay volume of 10.1 μL per well. The test compound was dissolved in 90% (v/v) DMSO/water. For the assays, 100 nL of the 90% (v/v) DMSO/water solution or compound solution were added per well, followed by the addition of 5 μL protein solution (protein in 1× assay buffer).
The final assay concentration of the protein was nominally 100 nM. After 45 minutes of pre-incubation at room temperature, the competition for binding was started by the addition of 5 μL probe solution (probe dissolved in assay buffer). The final concentration of the probes in the assays was 5 nM. After the addition of the probe solution, the final DMSO concentration in the assay was 0.9% (v/v). The effect of the probe on the pre-established compound-protein complex equilibrium was determined after 45 minutes (t=45 min). The AC50 value was calculated from the plot of percentage of protein saturation versus the test compound concentration by a logistics fit according to: y=A^2+(A^1−A^2)/(1+(x/AC50)^p), where y is the %-saturation value at the test compound concentration, x. A^1 is the lowest saturation value, i.e., 0%, and A^2 the maximum saturation value, i.e. 100%. The exponent, p, is the Hill coefficient.

Sequence of CRBN (Q96SW2 whole entry): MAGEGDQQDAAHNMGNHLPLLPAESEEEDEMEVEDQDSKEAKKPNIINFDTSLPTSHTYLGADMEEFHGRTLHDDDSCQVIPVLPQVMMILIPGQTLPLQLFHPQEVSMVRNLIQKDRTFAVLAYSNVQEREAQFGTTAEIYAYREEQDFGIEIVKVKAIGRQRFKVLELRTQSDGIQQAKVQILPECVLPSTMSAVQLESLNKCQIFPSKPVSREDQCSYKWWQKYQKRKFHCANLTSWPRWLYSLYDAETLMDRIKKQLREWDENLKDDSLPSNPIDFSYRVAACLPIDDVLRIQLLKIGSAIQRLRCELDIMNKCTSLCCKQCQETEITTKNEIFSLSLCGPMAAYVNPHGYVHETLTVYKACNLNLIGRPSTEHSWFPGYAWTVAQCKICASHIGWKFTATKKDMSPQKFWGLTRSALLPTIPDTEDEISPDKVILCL
T1 sequence (Q06187 whole entry): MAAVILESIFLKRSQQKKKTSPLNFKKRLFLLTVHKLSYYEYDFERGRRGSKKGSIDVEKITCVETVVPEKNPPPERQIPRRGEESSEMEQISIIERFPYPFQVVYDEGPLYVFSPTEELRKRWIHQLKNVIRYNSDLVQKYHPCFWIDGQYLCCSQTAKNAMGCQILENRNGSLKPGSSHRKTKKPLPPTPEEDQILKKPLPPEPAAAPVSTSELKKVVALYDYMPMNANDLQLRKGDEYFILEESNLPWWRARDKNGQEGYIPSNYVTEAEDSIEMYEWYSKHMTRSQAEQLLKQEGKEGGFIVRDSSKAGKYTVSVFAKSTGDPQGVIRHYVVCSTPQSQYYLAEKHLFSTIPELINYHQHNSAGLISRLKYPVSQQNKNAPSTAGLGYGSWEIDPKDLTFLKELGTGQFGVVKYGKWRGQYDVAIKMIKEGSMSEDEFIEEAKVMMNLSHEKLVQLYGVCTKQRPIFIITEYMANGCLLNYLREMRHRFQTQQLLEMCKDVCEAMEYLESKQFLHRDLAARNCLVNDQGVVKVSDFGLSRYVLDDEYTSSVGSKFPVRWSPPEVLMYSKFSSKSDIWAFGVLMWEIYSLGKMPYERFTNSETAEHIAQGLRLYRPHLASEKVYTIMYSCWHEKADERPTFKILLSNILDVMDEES

SMILES	BTK degradation Amax (BTK) [%]	DC50 (BTK) [nM]	BTK degradation (BTK; extent of BTK degradation as stated in the text)	AC50 (CRBN) [nM]
COc1ccc(C(=O)N2CCOC3(CCN(Cc4ccc(-c5cc6c(-c7cc(F)cc(NC(=O)c8ccc(C(C)(C)O)cc8F)c7C)ncnc6[nH]5)cc4)CC3)C2)cc1N1CCC(=O)NC1=O [Compound 01, N-(3-(6-(4-((4-(3-(2,4-dioxotetrahydropyrimidin-1(2H)-yl)-4-methoxybenzoyl)-1-oxa-4,9-diazaspiro[5.5]undecan-9-yl)methyl)phenyl)-7H-pyrrolo[2,3-d]pyrimidin-4-yl)-5-fluoro-2-methylphenyl)-2-fluoro-4-(2-hydroxypropan-2-yl)benzamide]	98	> 3330	no significant BTK degradation was observed; also recorded: no degradation of BTK was observed	1590
Cc1c(NC(=O)c2ccc(C(C)(C)O)cc2F)cc(F)cc1-c1ncnc2[nH]c(-c3ccc(CN4CCN(C(=O)N5CCN(CCC#Cc6cccc(N7CCC(=O)NC7=O)c6)CC5)CC4)cc3)cc12 [Compound 03, N-(3-(6-(4-((4-(4-(4-(3-(2,4-dioxotetrahydropyrimidin-1(2H)-yl)phenyl)but-3-yn-1-yl)piperazine-1-carbonyl)piperazin-1-yl)methyl)phenyl)-7H-pyrrolo[2,3-d]pyrimidin-4-yl)-5-fluoro-2-methylphenyl)-2-fluoro-4-(2-hydroxypropan-2-yl)benzamide]	41.9	24.8	–	257
Cc1ccc(N2CCC(=O)NC2=O)cc1CNC(=O)CCCCN(C)Cc1ccc(-c2cc3c(-c4cc(F)cc(NC(=O)c5ccc(C(C)(C)O)cc5F)c4C)ncnc3[nH]2)cc1 [Compound 08, N-(3-(6-(4-(((5-((5-(2,4-dioxotetrahydropyrimidin-1(2H)-yl)-2-methylbenzyl)amino)-5-oxopentyl)(methyl)amino)methyl)phenyl)-7H-pyrrolo[2,3-d]pyrimidin-4-yl)-5-fluoro-2-methylphenyl)-2-fluoro-4-(2-hydroxypropan-2-yl)benzamide]	55.1	> 3330	–	2100
Cc1c(NC(=O)c2ccc(C(C)(C)O)cc2F)cc(F)cc1-c1ncnc2[nH]c(-c3ccc(CN4CCN(CCNC(=O)COc5cccc(N6CCC(=O)NC6=O)c5)CC4)cc3)cc12 [Compound 09, N-(3-(6-(4-((4-(2-(2-(3-(2,4-dioxotetrahydropyrimidin-1(2H)-yl)phenoxy)acetamido)ethyl)piperazin-1-yl)methyl)phenyl)-7H-pyrrolo[2,3-d]pyrimidin-4-yl)-5-fluoro-2-methylphenyl)-2-fluoro-4-(2-hydroxypropan-2-yl)benzamide]	3.9	3.2	–	1400
Cc1ccc(OCC(=O)N2CCN(CCOc3ccc(-c4cc5c(-c6cc(F)cc(NC(=O)c7ccc(C(C)(C)O)cc7F)c6C)ncnc5[nH]4)cc3)CC2)cc1N1CCC(=O)NC1=O [Compound 10, N-(3-(6-(4-(2-(4-(2-(3-(2,4-Dioxotetrahydropyrimidin-1(2H)-yl)-4-methylphenoxy)acetyl)piperazin-1-yl)ethoxy)phenyl)-7H-pyrrolo[2,3-d]pyrimidin-4-yl)-5-fluoro-2-methylphenyl)-2-fluoro-4-(2-hydroxypropan-2-yl)benzamide]	3.1	3.3	–	466
Cc1c(NC(=O)c2ccc(C(C)(C)O)cc2F)cc(F)cc1-c1ncnc2[nH]c(-c3ccc(CN4CCC(CCNC(=O)COc5cccc(N6CCC(=O)NC6=O)c5)CC4)cc3)cc12 [Compound 11, N-(3-(6-(4-((4-(2-(2-(3-(2,4-Dioxotetrahydropyrimidin-1(2H)-yl)phenoxy)acetamido)ethyl)piperidin-1-yl)methyl)phenyl)-7H-pyrrolo[2,3-d]pyrimidin-4-yl)-5-fluoro-2-methylphenyl)-2-fluoro-4-(2-hydroxypropan-2-yl)benzamide]	2.3	2.2	–	599
Cc1c(NC(=O)c2ccc(C(C)(C)O)cc2F)cc(F)cc1-c1ncnc2[nH]c(-c3ccc(CN(C)CCCNC(=O)COc4cccc(N5CCC(=O)NC5=O)c4)cc3)cc12 [Compound 12, N-(3-(6-(4-(((3-(2-(3-(2,4-dioxotetrahydropyrimidin-1(2H)-yl)phenoxy)acetamido)propyl)(methyl)amino)methyl)phenyl)-7H-pyrrolo[2,3-d]pyrimidin-4-yl)-5-fluoro-2-methylphenyl)-2-fluoro-4-(2-hydroxypropan-2-yl)benzamide]	2.3	10.7	–	7160
Cc1c(NC(=O)N2CC(O)(CC(C)(C)C)C2)cc(F)cc1-c1ncnc2[nH]c(-c3ccc(OCCCN4CCN(C(=O)COc5ccc(Cl)c(N6CCC(=O)NC6=O)c5)CC4)nc3)cc12 [Compound 13, N-(3-(6-(6-(3-(4-(2-(4-chloro-3-(2,4-dioxotetrahydropyrimidin-1(2H)-yl)phenoxy)acetyl)piperazin-1-yl)propoxy)pyridin-3-yl)-7H-pyrrolo[2,3-d]pyrimidin-4-yl)-5-fluoro-2-methylphenyl)-3-hydroxy-3-neopentylazetidine-1-carboxamide]	4.6	3.7	–	575
Cc1c(NC(=O)c2ccc(C(C)(C)O)cc2F)cc(F)cc1-c1ncnc2[nH]c(-c3ccc(CNCCCCCCOc4cccc(N5CCC(=O)NC5=O)c4)cc3)cc12 [Compound 14, N-(3-(6-(4-(((6-(3-(2,4-Dioxotetrahydropyrimidin-1(2H)-yl)phenoxy)hexyl)amino)methyl)phenyl)-7H-pyrrolo[2,3-d]pyrimidin-4-yl)-5-fluoro-2-methylphenyl)-2-fluoro-4-(2-hydroxypropan-2-yl)benzamide]	25.9	25.9	–	504
Cc1c(NC(=O)c2ccc(C(C)(C)O)cc2F)cc(F)cc1-c1ncnc2[nH]c(-c3ccc(CN4CCOC(CN(C)CCOc5cccc(N6CCC(=O)NC6=O)c5)C4)cc3)cc12 (stereo not shown) [Compound 15, N-(3-(6-(4-((2-(((2-(3-(2,4-Dioxotetrahydropyrimidin-1(2H)-yl)phenoxy)ethyl)(methyl)amino)methyl)morpholino)methyl)phenyl)-7H-pyrrolo[2,3-d]pyrimidin-4-yl)-5-fluoro-2-methylphenyl)-2-fluoro-4-(2-hydroxypropan-2-yl)benzamide]	28.8	21.7	–	4110
